# According to patent US9023831B2, “Methods and compositions of inhibiting complement and cellular activation with Dextran Sulfate” (Novelmed Therapeutics, Inc., priority 2007, dated 2015):
# Entries after “also recorded” stand apart in the source; their conditions may differ.
# Columns and labels:
# [1] = test system: C5b-9 Formation in Normal Human Serum; assay: Alternative pathway-dependent C5b-9 (MAC) solid phase ELISA on LPS; type: biochemical; conditions: 8% NHS, LPS coated wells
# Procedure: Uncoated wells served as background controls.
# Microtiter wells were coated with LPS (2 μg/50 μl per well) in VBS overnight at 4° C. Uncoated wells served as background controls. After aspirating the LPS solution, wells were treated with blocking solution and incubated with various concentrations of normal human serum.
# [2] = test system: Alternative Pathway Dependent C3b formation in Normal Human Serum; assay: Alternative pathway-dependent C3b assay on LPS coated plates; type: biochemical; conditions: for inhibition of C3b formation: increasing concentrations
# Excerpt: As a result, C3b is generated and is deposited on to LPS. […] LPS bound C3b was detected with a rabbit anti-human C3c antibody (Dako Corp). Rabbit antibody bolund to C3b was detected with peroxidase-conjugated goat anti-rabbit polyclonal antibody. Peroxidase was detected with TMB substrate using common methods.
# It was of interest to us to determine whether the Dextran Sulfate might appreciably affect the C3b generation, an important component of the amplification loop of the complement cascade. To analyze the effects of the Dextran Sulfate on C3b formation via the alternative pathway, an assay was utilized in which bacterial LPS was used as a substrate to initiate the alternative complement pathway cascade. […] Microtiter wells were coated with LPS (2 μg/50 μl per well) in VBS overnight at 4° C. Uncoated wells served as background controls. After aspirating the LPS solution, wells were treated with blocking solution and incubated with various concentrations of normal human serum. Following a 2 hour incubation at 37° C., deposited C3b was detected with rabbit anti-human C3c polyclonal antibody (Accurate Biochemicals) using standard ELISA methodologies essentially as described in the Examples above. […] The amount of inhibition of soluble C3b deposition was determined using the antibody detection system described in the Examples above.
# [3] = test system: neutrophils (CD11b expression); assay: Neutrophil activation (CD11b flow cytometry) after tubing loop; type: cell-based, human
# Excerpt: Same samples of blood following the tubing loop were also subjected to neutrophil specific flow cytometry. […] Similar data was obtained with multiple donors. In the Figure are shown Rotated Control (blood sample in tubing loop), Unrotated controls (samples taken out before tubing loop). Unrotated represents the background controls.
# The activation of neutrophils, monocyte and platelets were quantitated by measuring the levels of the cell-surface expression of CD11b and CD62P on neutrophils/monocytes and platelets, respectively. For CD11b labeling of neutrophils, 200 μl of whole blood collected from the circuits were immediately incubated with 20 μl of phycoerythrin (PE)-anti-CD11b antibody (Becton Dickinson, San Jose, Calif.) for 20 minutes at room temperature in a microcentrifuge tube. Then 2 ml of FACS Lysing Solution (Becton Dickinson) was added for 20 minutes at room temperature to lyse red blood cells and to fix leukocytes. The microcentrifuge tubes were centrifuged at 300 g for 5 minutes for leukocytes and 1200 g for platelets. The supernatant was aspirated and the cells resuspended in PBS for washing. The tubes were spun again, the supernatant aspirated, and the cells finally resuspended in 0.5 ml of 1% paraformaldehyde overnight prior to analysis using an BD-LSR flow cytometer (BD Biosciences). For double labeling to concomitantly identify the neutrophil population, 10 μl of fluorescein isothiocyanate (FITC)-anti-CD15 antibody (clone MMA, Becton Dickinson) were added for incubation together with PE-anti-CD11b antibody to stain neutrophils and anti-CD14 (FITC) along with PE-CD11b was used for monocytes.
# Neutrophils bear both C3a and C5a receptors. Thus, prevention of C3a/C5a production should have direct effect on CD11b expression. Monocytes have been known to bear the C3a receptors. C3a produced because of complement activation is known to activate monocytes.
# For flow cytometry measurement, the PMN (containing mainly neutrophils) and platelet populations were identified by live gating based on forward- versus side-scatter parameters and specific staining with FITC-anti-CD15 antibody and FITC-anti-CD61 antibody, respectively. The background staining was gated using isotype-matched labeled antibodies. The intensity of expression of CD11b and CD62P was represented by mean fluorescence intensity (MFI).
# [4] = test system: Alternative Pathway (AP) Activation in a Rabbit Erythrocyte Assay; assay: Alternative pathway-dependent hemolysis of rabbit erythrocytes in normal human serum; conditions: for inhibition of AP-dependent hemolysis: 10 μg/ml
# Procedure: X axis is time of hemolysis in seconds and Y-axis is scattering at 700 nm. Methods: Normal human serum 10% was incubated with rabbit erythrocytes in AP buffer with and without Dextran Sulfate. Various concentrations of Dextran Sulfate were used ranging from 1 to 60 μg/ml.
# The Dextran Sulfate (40,000 molecular weight) was examined in the alternative pathway dependent hemolysis assay. […] Normal human serum, at various concentrations in Gelatin Veronal Buffer (GVB) (Advanced Research Technology) with 5 mM MgCl2 and 10 mM EGTA, was incubated with 37° C. with a fixed number of rabbit erythrocytes (Advanced Research Technology). A progressive decrease in light scatter (due to lysis of intact cells) was measured at 700 nm as a function of time in a temperature-controlled ELISA plate reader. […] The data were recorded and analyzed with a SpectraMax 190 plate reader and SoftMax Pro software.
# We evaluated Dextran Sulfate effect in a cellular assay as a means of examining the effects of the Dextran Sulfate on alternative pathway function. Increasing amounts of the Dextran Sulfate were added to 10% human serum that was incubated with rabbit erythrocytes at 37° C.
# arthritic Lewis rats = assay: Joint inflammation and bone destruction in Rat-AIA (CFA-induced arthritis); type: in vivo
# Procedure: Lewis male rats were used to examine the effect of Dextran Sulfate combination with aggrastat (molecular weight 40,000 and 5,000) for the treatment of arthritis. Arthritis was induced in adult male Lewis rats (200-225 gm) by an intradermal injection of complete Freund's adjuvant (CFA) at the base of the tail on the dorsal side. The CFA (100 mg dried and heat killed Mycobacterium butyricum (Difco, Detroit, Mich.) emulsified in 10 ml sterile mineral oil) was prepared by grinding the bacteria powder with a mortar and pestle until the bacterial cell wall turned from a light beige to an eggshell white powder. The mineral oil was then slowly mixed into the bacterial cell wall using the mortar and pestle. All animals in each experiment were challenged with the same preparation of adjuvant and nearly 100% of the animals developed arthritis. Dextran Sulfate was obtained from Sigma Aldrich Corp and Aggrastat was purchased from the pharmacy. Dextran Sulfate was dissolved in aggrastat. The drug treatment started on day 10 post-immunization, the time of disease onset, and continued until sacrifice. The dose of Dextran Sulfate was 20 & 10 mg/Kg/per day per 150-200 g rat. The inflammatory response was assesed by the measurement of paw volume. Paw volume appears to be very consistent and gave slow increasing arthritis over time. Paw volumes were measured every day until sacrifice using Plethysmometer (IITC). After the sacrifice/euthanasia, limbs were removed and processed for;
# a) histological evaluations: Only three animals were used per group. Sections were stained with Eosin and hematoxylin to identify various regions within the inflamed limb. Untreated controls have intact cartilage layer and the bone (Score 0) and clear synovium without pannus. Arthritic controls had no defined cartilage bone, and have pannus layer and significant inflammation (Score 5). Enbrel was used as positive control. […] We gave a score of 2.
# b) Paw Swelling: Each paw was measured for water displacement using plethysmometer. Paw volume was measured every day.
# Continuous treatment of Dextran Sulfate therapies from disease onset affected paw swelling in arthritic rats. All adjuvant-challenged rats developed AA between days 10-12. […] While inflammation was decreased in these treatment groups, we observed a greater effect for these drugs in prevention of bone and cartilage destruction.
substance,measurement,setting,value
Dextran Sulfate [NM3014],inhibition of C5b-9 (MAC) formation,[1],Inhibits C5b-9 Formation
same,inhibition of C5b-9 (MAC) formation,[1]; listed as Dextran Sulfate,completely prevented
same,IC50 of inhibition of C3b formation,[2]; 10% normal human serum,7 to 10 µg/mL
same,inhibition of C3b formation,[2],inhibited C3b formation in a dose dependent manner
same,inhibition of C3b formation,[2]; listed as Dextran Sulfate,completely prevents C3b generation in a dose dependent manner
same,inhibition of neutrophil activation,[3]; 40 μg/ml,no effect
same,inhibition of neutrophil activation,"[3]; 40 μg/ml, listed as Dextran Sulfate",No inhibition
same,inhibition of neutrophil activation,[3]; 800 to 100 μg/ml,inhibited; also recorded: prevents neutrophil activation
same,inhibition of neutrophil activation,"[3]; 800 to 100 μg/ml, listed as Dextran Sulfate",inhibits neutrophil activation
same,inhibition of AP-dependent hemolysis,[4]; 10% human serum,inhibits hemolysis
same,inhibition of AP-dependent hemolysis,"[4]; 10% human serum, listed as Dextran Sulfate",caused inhibition
same,inhibition of complement AP (hemolysis),"[4]; 30 μg/ml, 10% human serum",Total inhibition
same,inhibition of erythrocyte lysis / AP function,"[4]; increasing concentrations, human serum",completely blocking MAC-mediated cellular destruction; also recorded: full inhibition
same,soft tissue swelling,"arthritic Lewis rats; by day 28 post-adjuvant injection, vs vehicle-treated AA rats",significantly decreased
same,"paw swelling (paw volume, plethysmometer)","arthritic Lewis rats; with Aggrastat, compared to untreated controls, listed as Dextran Sulfate 40,000 molecular weight",significantly decreased
